{"source": "paper doi:10.1101/2023.11.09.566408v1", "about": "(bioRxiv, 2023)", "key": {"[1]": {"details": "rats, IV, cited from earlier work"}, "[2]": {"assay_type": "in vivo, mice", "details": "male, Swiss, mouse, plasma, po, 100 ug"}}, "data": [{"smiles": "CC[C@H](C)[C@H](NC(=O)[C@@H]1CCCN1C(=O)CNC(=O)[C@H](Cc1ccccc1)NC(=O)[C@H](CC(N)=O)NC(=O)[C@H](CC(N)=O)NC(=O)[C@H](CO)NC(=O)[C@H](CO)NC(=O)[C@H](Cc1c[nH]cn1)NC(=O)[C@@H](NC(=O)[C@H](CC(C)C)NC(=O)[C@H](Cc1ccccc1)NC(=O)[C@H](CC(N)=O)NC(=O)[C@H](C)NC(=O)[C@H](CC(C)C)NC(=O)[C@H](CCCNC(=N)N)NC(=O)[C@H](CCC(N)=O)NC(=O)[C@@H](NC(=O)[C@H](C)NC(=O)[C@@H]1CSSC[C@H](NC(=O)[C@@H](N)CCCCN)C(=O)N[C@@H](CC(N)=O)C(=O)N[C@@H]([C@@H](C)O)C(=O)N[C@@H](C)C(=O)N[C@@H]([C@@H](C)O)C(=O)N1)[C@@H](C)O)C(C)C)C(=O)N[C@@H](CC(C)C)C(=O)N1CCC[C@H]1C(=O)N1CCC[C@H]1C(=O)N[C@H](C(=O)N[C@@H](CC(N)=O)C(=O)N[C@H](C(=O)NCC(=O)N[C@@H](CO)C(=O)N[C@@H](CC(N)=O)C(=O)N[C@H](C(=O)N[C@@H](Cc1ccc(O)cc1)C(N)=O)[C@@H](C)O)C(C)C)[C@@H](C)O", "note": "[pramlintide]", "values": [{"measurement": "plasma concentration", "setting": "[1]; 1 μg", "result": "1,000 pM"}, {"measurement": "plasmatic concentration", "setting": "[1]; 10 μg", "result": "10,000 pM"}, {"measurement": "Tmax", "setting": "[2]", "result": 30, "unit": "min"}]}]}
